In brackets after ≈: the same amount, converted by molar mass. Like-named read-outs stand apart in the source and are kept apart here. Peptide text beside a SMILES is read from it.
Key:
[1] = system: P. aeruginosa (colistin-susceptible); experiment: MIC, colistin-susceptible P. aeruginosa isolates, with and without otilonium bromide; format: cell-based; conditions: Pseudomonas aeruginosa
[2] = system: E. coli (colistin-resistant); experiment: MIC, colistin-resistant E. coli clinical isolates, with and without otilonium bromide; format: cell-based; conditions: Escherichia coli

For `CCC(C)CCCC(=O)N[C@@H](CCN)C(=O)N[C@H](C(=O)N[C@@H](CCN)C(=O)N[C@H]1CCNC(=O)[C@H]([C@@H](C)O)NC(=O)[C@H](CCN)NC(=O)[C@H](CCN)NC(=O)[C@H](CC(C)C)NC(=O)[C@@H](CC(C)C)NC(=O)[C@H](CCN)NC1=O)[C@@H](C)O` (stereo partly drawn) [Colistin] (HELM PEPTIDE1{[CCC(C)CCCC(=O)[*:2]].[Dab].T.[Dab].[Dab].[Dab].[dL].L.[Dab].[Dab].T}$PEPTIDE1,PEPTIDE1,5:R3-11:R2$$$V2.0), the MIC ([1]; P. aeruginosa PA01, colistin-susceptible, colistin alone, read-out: Colistin MIC, Colistin) was 2 µg/mL (≈ 1.73 µM), the MIC ([1]; P. aeruginosa PA01, colistin-susceptible, in the presence of 10 ug/ml Ob, read-out: Colistin MIC, Colistin + 10 ug/ml Ob) was 0.5 µg/mL and the MIC ([1]; P. aeruginosa PA01, colistin-susceptible, in the presence of 20 ug/ml Ob, read-out: Colistin MIC, Colistin + 20 ug/ml Ob) was 0.25 µg/mL. For the same molecule, the MIC ([1]; P. aeruginosa PAER 2011-3010, colistin-susceptible, colistin alone, read-out: Colistin MIC, Colistin) was 2 µg/mL (≈ 1.73 µM), the MIC ([1]; P. aeruginosa PAER 2011-3010, colistin-susceptible, in the presence of 10 ug/ml Ob, read-out: Colistin MIC, Colistin + 10 ug/ml Ob) was 1 µg/mL and the MIC ([1]; P. aeruginosa PAER 2011-3010, colistin-susceptible, in the presence of 20 ug/ml Ob, read-out: Colistin MIC, Colistin + 20 ug/ml Ob) was 0.25 µg/mL. It also gave an MIC ([1]; P. aeruginosa PAER 2011-3252, colistin-susceptible, colistin alone, read-out: Colistin MIC, Colistin) of 2 µg/mL (≈ 1.73 µM), an MIC ([1]; P. aeruginosa PAER 2011-3252, colistin-susceptible, in the presence of 10 ug/ml Ob, read-out: Colistin MIC, Colistin + 10 ug/ml Ob) of 0.5 µg/mL and an MIC ([1]; P. aeruginosa PAER 2011-3252, colistin-susceptible, in the presence of 20 ug/ml Ob, read-out: Colistin MIC, Colistin + 20 ug/ml Ob) of 0.25 µg/mL. It also gave an MIC ([1]; P. aeruginosa PAER 2012-1527, colistin-susceptible, colistin alone, read-out: Colistin MIC, Colistin) of 2 µg/mL (≈ 1.73 µM), an MIC ([1]; P. aeruginosa PAER 2012-1527, colistin-susceptible, in the presence of 10 ug/ml Ob, read-out: Colistin MIC, Colistin + 10 ug/ml Ob) of 2 µg/mL and an MIC ([1]; P. aeruginosa PAER 2012-1527, colistin-susceptible, in the presence of 20 ug/ml Ob, read-out: Colistin MIC, Colistin + 20 ug/ml Ob) of 0.5 µg/mL. For the same molecule, the MIC ([1]; P. aeruginosa PAERC 10.296, colistin-susceptible, colistin alone, read-out: Colistin MIC, Colistin) was 2 µg/mL (≈ 1.73 µM), the MIC ([1]; P. aeruginosa PAERC 10.296, colistin-susceptible, in the presence of 10 ug/ml Ob, read-out: Colistin MIC, Colistin + 10 ug/ml Ob) was 0.0625 µg/mL and the MIC ([1]; P. aeruginosa PAERC 10.296, colistin-susceptible, in the presence of 20 ug/ml Ob, read-out: Colistin MIC, Colistin + 20 ug/ml Ob) was 0.0625 µg/mL. For the same molecule, the MIC ([1]; P. aeruginosa PAERC 11.2309, colistin-susceptible, colistin alone, read-out: Colistin MIC, Colistin) was 2 µg/mL (≈ 1.73 µM), the MIC ([1]; P. aeruginosa PAERC 11.2309, colistin-susceptible, in the presence of 10 ug/ml Ob, read-out: Colistin MIC, Colistin + 10 ug/ml Ob) was 0.5 µg/mL and the MIC ([1]; P. aeruginosa PAERC 11.2309, colistin-susceptible, in the presence of 20 ug/ml Ob, read-out: Colistin MIC, Colistin + 20 ug/ml Ob) was 2 µg/mL. The MIC ([1]; P. aeruginosa PAERC 11.236, colistin-susceptible, colistin alone, read-out: Colistin MIC, Colistin) was 2 µg/mL (≈ 1.73 µM), the MIC ([1]; P. aeruginosa PAERC 11.236, colistin-susceptible, in the presence of 10 ug/ml Ob, read-out: Colistin MIC, Colistin + 10 ug/ml Ob) was 0.5 µg/mL and the MIC ([1]; P. aeruginosa PAERC 11.236, colistin-susceptible, in the presence of 20 ug/ml Ob, read-out: Colistin MIC, Colistin + 20 ug/ml Ob) was 0.5 µg/mL. For the same molecule, the MIC ([1]; P. aeruginosa PAERC 11.603, colistin-susceptible, colistin alone, read-out: Colistin MIC, Colistin) was 2 µg/mL (≈ 1.73 µM), the MIC ([1]; P. aeruginosa PAERC 11.603, colistin-susceptible, in the presence of 10 ug/ml Ob, read-out: Colistin MIC, Colistin + 10 ug/ml Ob) was 0.5 µg/mL and the MIC ([1]; P. aeruginosa PAERC 11.603, colistin-susceptible, in the presence of 20 ug/ml Ob, read-out: Colistin MIC, Colistin + 20 ug/ml Ob) was 0.25 µg/mL. It also gave an MIC ([1]; P. aeruginosa PAERC 12.1478, colistin-susceptible, colistin alone, read-out: Colistin MIC, Colistin) of 2 µg/mL (≈ 1.73 µM), an MIC ([1]; P. aeruginosa PAERC 12.1478, colistin-susceptible, in the presence of 10 ug/ml Ob, read-out: Colistin MIC, Colistin + 10 ug/ml Ob) of 0.5 µg/mL and an MIC ([1]; P. aeruginosa PAERC 12.1478, colistin-susceptible, in the presence of 20 ug/ml Ob, read-out: Colistin MIC, Colistin + 20 ug/ml Ob) of 0.125 µg/mL. It also gave an MIC ([2]; E. coli 5, colistin-resistant, colistin alone, read-out: Colistin MIC, Colistin) of 8 µg/mL (≈ 6.92 µM), an MIC ([2]; E. coli 5, colistin-resistant, in the presence of 10 ug/ml Ob, read-out: Colistin MIC, Colistin + 10 ug/ml Ob) of 4 µg/mL and an MIC ([2]; E. coli 5, colistin-resistant, in the presence of 20 ug/ml Ob, read-out: Colistin MIC, Colistin + 20 ug/ml Ob) of no more than 0.25 µg/mL. The MIC ([2]; E. coli 12.12.0487, colistin-resistant, colistin alone, read-out: Colistin MIC, Colistin) was 8 µg/mL (≈ 6.92 µM), the MIC ([2]; E. coli 12.12.0487, colistin-resistant, in the presence of 10 ug/ml Ob, read-out: Colistin MIC, Colistin + 10 ug/ml Ob) was 2 µg/mL and the MIC ([2]; E. coli 12.12.0487, colistin-resistant, in the presence of 20 ug/ml Ob, read-out: Colistin MIC, Colistin + 20 ug/ml Ob) was 0.5 µg/mL. It also gave an MIC ([2]; E. coli 101, colistin-resistant, colistin alone, read-out: Colistin MIC, Colistin) of 8 µg/mL (≈ 6.92 µM), an MIC ([2]; E. coli 101, colistin-resistant, in the presence of 10 ug/ml Ob, read-out: Colistin MIC, Colistin + 10 ug/ml Ob) of 4 µg/mL and an MIC ([2]; E. coli 101, colistin-resistant, in the presence of 20 ug/ml Ob, read-out: Colistin MIC, Colistin + 20 ug/ml Ob) of 1 µg/mL. It also gave an MIC ([2]; E. coli 119, colistin-resistant, colistin alone, read-out: Colistin MIC, Colistin) of 16 µg/mL (≈ 13.8 µM), an MIC ([2]; E. coli 119, colistin-resistant, in the presence of 10 ug/ml Ob, read-out: Colistin MIC, Colistin + 10 ug/ml Ob) of 4 µg/mL and an MIC ([2]; E. coli 119, colistin-resistant, in the presence of 20 ug/ml Ob, read-out: Colistin MIC, Colistin + 20 ug/ml Ob) of 2 µg/mL. For the same molecule, the MIC ([2]; E. coli 812, colistin-resistant, colistin alone, read-out: Colistin MIC, Colistin) was 16 µg/mL (≈ 13.8 µM) and the MIC ([2]; E. coli 812, colistin-resistant, in the presence of 10 ug/ml Ob, read-out: Colistin MIC, Colistin + 10 ug/ml Ob) was 4 µg/mL.

From patent publication US12220440B2, “Drug composition, method for treating infection, disinfecting composition, and drug adjuvant” (priority 2022, dated 2025)
